In patent publication US5593970A, “Heterocyclic anthracycline analogs” (priority 1994, dated 1997):

How the values were obtained:
tumor cell lines = assay: NCI sulforhodamine B assay, all cell lines; details: Homo sapiens; for CC50 / IC100: 48 h; for CC50: read-out: Log10 LC50, Mean / MG-MID, all cell lines (converted); for IC100: read-out: Log10 TGI, Mean / MG-MID, all cell lines; for GI50: read-out: Log10 GI50, Mean / MG-MID, all cell lines (converted)
solid tumors = assay: NCI assay, mean potency in solid tumors; details: Homo sapiens; for GI50: read-out: Average LOG10 GI50, Mean Potency in solid tumors; for CC50: 48 h, read-out: Average LOG10 LC50, Mean Potency in solid tumors
Melanoma = assay: NCI assay, average per cancer type; details: Homo sapiens; for CC50: 48 h, read-out: Average LOG10 LC50; for GI50: read-out: Average LOG10 GI50
Renal = assay: NCI assay, average per cancer type; details: Homo sapiens; for CC50: 48 h, read-out: Average LOG10 LC50; for GI50: read-out: Average LOG10 GI50
SKVLB = assay: Microculture tetrazolium assay; type: cell-based
CNS = assay: NCI assay, average per cancer type; details: Homo sapiens; for CC50: 48 h, read-out: Average LOG10 LC50; for GI50: read-out: Average LOG10 GI50
SKOV3 = assay: Microculture tetrazolium assay; type: cell-based; details: Homo sapiens, SK-OV-3, SKOV3; read-out: IC50
SC Lung = assay: NCI assay, average per cancer type; details: Homo sapiens; for CC50: 48 h, read-out: Average LOG10 LC50; for GI50: read-out: Average LOG10 GI50
NSC Lung = assay: NCI assay, average per cancer type; details: Homo sapiens; for CC50: 48 h, read-out: Average LOG10 LC50; for GI50: read-out: Average LOG10 GI50
Ovarian = assay: NCI assay, average per cancer type; details: Homo sapiens; for CC50: 48 h, read-out: Average LOG10 LC50; for GI50: read-out: Average LOG10 GI50
Colon = assay: NCI assay, average per cancer type; details: Homo sapiens; for CC50: 48 h, read-out: Average LOG10 LC50; for GI50: read-out: Average LOG10 GI50
Leukemia = assay: NCI assay, average per cancer type; details: for CC50: 48 h, read-out: Average LOG10 LC50; for GI50: read-out: Average LOG10 GI50

Question: How did the CC50 (tumor cell lines) turn out when CCOC(=O)C1CC2=C(C(=O)c3c(c(O)c4ccccc4c3OC)C2=O)C(O[C@H]2C[C@H](NC(=O)C(F)(F)F)[C@H](O)[C@H](C)O2)O1 (mixture of isomers) [BCH-689, (1'S,1R,3S) and (1'S,1S,3R) Ethyl (6-hydroxy-11-methoxy-5,12-dioxo-1-(3,-trifluoroacetamido-1-daunosaminyl)-3,4,5,12-tetrahydroanthraceno[2,3-c]pyran-3-yl)formate] was run?
Answer: 45.7 µM

Question: And the IC100 (tumor cell lines)?
Answer: 26.3 µM

Question: And the GI50 (tumor cell lines)?
Answer: 12.6 µM

Question: And the GI50 (solid tumors)?
Answer: 12 µM

Question: And the CC50 (Melanoma)?
Answer: 41.7 µM

Question: What about the GI50 (Melanoma) of the same compound?
Answer: 12.6 µM

Question: And the CC50 (Renal)?
Answer: 37.2 µM

Question: What about the GI50 (Renal) of the same compound?
Answer: 11.2 µM

Question: What about the VLB/OV3 (SKVLB; IC50 ratio SKVLB/SKOV3) of the same compound?
Answer: 1.06

Question: And the IC50 (SKVLB; SKVLB, read-out: IC50)?
Answer: 4.02 µM

Question: And the CC50 (CNS)?
Answer: 40.7 µM

Question: What about the GI50 (CNS) of the same compound?
Answer: 12.9 µM

Question: And the IC50 (SKOV3)?
Answer: 3.79 µM

Question: And the CC50 (SC Lung)?
Answer: 42.7 µM

Question: What about the GI50 (SC Lung) of the same compound?
Answer: 11.5 µM

Question: And the CC50 (NSC Lung)?
Answer: 41.7 µM

Question: What about the GI50 (NSC Lung) of the same compound?
Answer: 13.5 µM

Question: What about the CC50 (Ovarian) of the same compound?
Answer: 42.7 µM

Question: What about the GI50 (Ovarian) of the same compound?
Answer: 11.5 µM

Question: And the CC50 (Colon)?
Answer: 38.9 µM

Question: And the GI50 (Colon)?
Answer: 11.2 µM

Question: And the CC50 (Leukemia)?
Answer: < 100 µM

Question: What about the GI50 (Leukemia) of the same compound?
Answer: 15.5 µM

Question: With COC(=O)[C@H]1CC2=C(C(=O)c3cc4ccccc4cc3C2=O)[C@H](O[C@H]2C[C@H](NC(=O)C(F)(F)F)[C@H](O)[C@H](C)O2)O1 [BCH-670] as the compound, how does the CC50 (tumor cell lines) read?
Answer: 29.5 µM

Question: And the IC100 (tumor cell lines)?
Answer: 8.32 µM

Question: And the GI50 (tumor cell lines)?
Answer: 2.75 µM

Question: And the CC50 (solid tumors)?
Answer: 26.9 µM

Question: And the GI50 (solid tumors)?
Answer: 3.02 µM

Question: What about the CC50 (Melanoma) of the same compound?
Answer: 20.4 µM

Question: What about the GI50 (Melanoma) of the same compound?
Answer: 1.78 µM

Question: What about the CC50 (Renal) of the same compound?
Answer: 29.5 µM

Question: What about the GI50 (Renal) of the same compound?
Answer: 4.37 µM

Question: And the CC50 (CNS)?
Answer: 26.3 µM

Question: And the GI50 (CNS)?
Answer: 3.63 µM

Question: And the CC50 (SC Lung)?
Answer: 38.9 µM

Question: And the GI50 (SC Lung)?
Answer: 3.31 µM

Question: What about the CC50 (NSC Lung) of the same compound?
Answer: 24 µM

Question: What about the GI50 (NSC Lung) of the same compound?
Answer: 3.09 µM

Question: What about the CC50 (Ovarian) of the same compound?
Answer: 39.8 µM

Question: What about the GI50 (Ovarian) of the same compound?
Answer: 3.8 µM

Question: What about the CC50 (Colon) of the same compound?
Answer: 25.1 µM

Question: And the GI50 (Colon)?
Answer: 2.04 µM

Question: And the CC50 (Leukemia)?
Answer: > 100 µM

Question: What about the GI50 (Leukemia) of the same compound?
Answer: 1.66 µM

Question: Which CC50 (tumor cell lines) does the source give for COC(=O)[C@@H]1CC2=C(C(=O)c3cc4ccccc4cc3C2=O)[C@H](O[C@H]2C[C@H](NC(=O)C(F)(F)F)[C@H](O)[C@H](C)O2)O1 [BCH-672] here?
Answer: 26.9 µM

Question: And the IC100 (tumor cell lines)?
Answer: 7.94 µM

Question: And the GI50 (tumor cell lines)?
Answer: 2.63 µM

Question: And the CC50 (solid tumors)?
Answer: 27.5 µM

Question: And the GI50 (solid tumors)?
Answer: 2.75 µM

Question: What about the CC50 (Melanoma) of the same compound?
Answer: 21.4 µM

Question: What about the GI50 (Melanoma) of the same compound?
Answer: 1.55 µM

Question: What about the CC50 (Renal) of the same compound?
Answer: 24 µM

Question: What about the GI50 (Renal) of the same compound?
Answer: 4.17 µM

Question: And the CC50 (CNS)?
Answer: 31.6 µM

Question: And the GI50 (CNS)?
Answer: 4.68 µM

Question: What about the CC50 (SC Lung) of the same compound?
Answer: 39.8 µM

Question: And the GI50 (SC Lung)?
Answer: 2.04 µM

Question: What about the CC50 (NSC Lung) of the same compound?
Answer: 27.5 µM

Question: And the GI50 (NSC Lung)?
Answer: 3.55 µM

Question: And the CC50 (Ovarian)?
Answer: 25.7 µM

Question: And the GI50 (Ovarian)?
Answer: 3.16 µM

Question: And the CC50 (Colon)?
Answer: 28.2 µM

Question: What about the GI50 (Colon) of the same compound?
Answer: 1.66 µM

Question: What about the CC50 (Leukemia) of the same compound?
Answer: 42.7 µM

Question: What about the GI50 (Leukemia) of the same compound?
Answer: 1.29 µM

Question: Which CC50 (tumor cell lines) does the source give for CCOC(=O)[C@@H]1CC2=C(C(=O)c3c(cc4ccccc4c3O)C2=O)[C@@H](O[C@H]2C[C@H](NC(=O)C(F)(F)F)[C@H](O)[C@H](C)O2)O1 [BCH-673] here?
Answer: 20.9 µM

Question: And the IC100 (tumor cell lines)?
Answer: 4.47 µM

Question: And the GI50 (tumor cell lines)?
Answer: 1.48 µM

Question: And the CC50 (solid tumors)?
Answer: 21.9 µM

Question: And the GI50 (solid tumors)?
Answer: 1.55 µM

Question: And the CC50 (Melanoma)?
Answer: 13.5 µM

Question: What about the GI50 (Melanoma) of the same compound?
Answer: 1.48 µM

Question: And the CC50 (Renal)?
Answer: 11 µM

Question: What about the GI50 (Renal) of the same compound?
Answer: 1.58 µM

Question: What about the CC50 (CNS) of the same compound?
Answer: 26.9 µM

Question: What about the GI50 (CNS) of the same compound?
Answer: 2.24 µM

Question: And the CC50 (SC Lung)?
Answer: 36.3 µM

Question: What about the GI50 (SC Lung) of the same compound?
Answer: 1.82 µM

Question: And the CC50 (NSC Lung)?
Answer: 21.9 µM

Question: And the GI50 (NSC Lung)?
Answer: 1.74 µM

Question: What about the CC50 (Ovarian) of the same compound?
Answer: 21.9 µM

Question: What about the GI50 (Ovarian) of the same compound?
Answer: 1.55 µM

Question: What about the CC50 (Colon) of the same compound?
Answer: 34.7 µM

Question: What about the GI50 (Colon) of the same compound?
Answer: 0.794 µM

Question: And the CC50 (Leukemia)?
Answer: > 100 µM

Question: What about the GI50 (Leukemia) of the same compound?
Answer: 1.07 µM

Question: Which CC50 (tumor cell lines) does the source give for COC(=O)[C@@H]1CC2=C(C(=O)c3cc4ccccc4c(O)c3C2=O)[C@@H](O[C@H]2C[C@H](NC(=O)C(F)(F)F)[C@H](O)[C@H](C)O2)O1 [BCH-683] here?
Answer: 21.9 µM

Question: And the IC100 (tumor cell lines)?
Answer: 5.75 µM

Question: And the GI50 (tumor cell lines)?
Answer: 2.14 µM

Question: And the CC50 (solid tumors)?
Answer: 15.5 µM

Question: And the GI50 (solid tumors)?
Answer: 2.09 µM

Question: And the CC50 (Melanoma)?
Answer: 7.08 µM

Question: And the GI50 (Melanoma)?
Answer: 1.12 µM

Question: And the CC50 (Renal)?
Answer: 26.3 µM

Question: And the GI50 (Renal)?
Answer: 3.16 µM

Question: What about the CC50 (CNS) of the same compound?
Answer: 31.6 µM

Question: What about the GI50 (CNS) of the same compound?
Answer: 3.39 µM

Question: What about the CC50 (SC Lung) of the same compound?
Answer: 8.32 µM

Question: And the GI50 (SC Lung)?
Answer: 1.86 µM

Question: What about the CC50 (NSC Lung) of the same compound?
Answer: 28.2 µM

Question: And the GI50 (NSC Lung)?
Answer: 3.02 µM

Question: What about the CC50 (Ovarian) of the same compound?
Answer: 15.8 µM

Question: And the GI50 (Ovarian)?
Answer: 2.09 µM

Question: What about the CC50 (Colon) of the same compound?
Answer: 10.5 µM

Question: And the GI50 (Colon)?
Answer: 1.29 µM

Question: What about the CC50 (Leukemia) of the same compound?
Answer: < 100 µM

Question: And the GI50 (Leukemia)?
Answer: 1.82 µM
